Like-named read-outs stand apart in the source and are kept apart here. Where a SMILES comes first, the peptide text is derived from it. Where no end group is shown, it is not given here. [ ]: non-standard residue; d: D form. Hyp = O=C(O)[C@@H]1C[C@@H](O)CN1; Pen = CC(C)(S)[C@H](N)C(=O)O; dDab = NCC[C@@H](N)C(=O)O; Dab = NCC[C@H](N)C(=O)O
Legend:
[1] = system: Klebsiella pneumoniae SSI3010
How it was run: (§1)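 Broth microdilution; cation-adjusted MHII; inoculum ~5×10^5 CFU/mL from 0.5 McFarland saline suspension; peptide two-fold serial dilutions; polysorbate 80 0.002% final; peptide stock 1 mg/mL in water.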

[2] = system: Escherichia coli ATCC 25922
How it was run: as §1

[3] = system: Escherichia coli MCR-1 Af 45; conditions: Mueller-Hinton broth II, no visible growth after 18-20 hours at 35° C.
How it was run: as §1

[4] = system: human red blood cells (hRBC); format: cell-based
How it was run: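 PBS-washed human erythrocytes (20% v/v) were incubated with compounds at 200 μg/mL for 1 h at 37° C with shaking. Supernatant OD540 was read after 8-fold dilution; hemolysis % = OD540 peptide / OD540 of the 100% lysis control (2.5% Triton X-100 in H2O) ×100, with PBS as 0%.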

[5] = red cells of human, 1 h, 0.2 g/L
[6] = Mueller-Hinton broth II, no visible growth after 18-20 hours at 35° C.

Row | Compound | Klebsiella pneumoniae SSI3010 MIC ([1]; SSI3010) [µg/mL] | Escherichia coli ATCC 25922 MIC ([2]; ATCC 25922) [µg/mL] | Escherichia coli MCR-1 Af 45 MIC [3] [µg/mL] | Hemolysis at 0.2 g/L [4, 5] [%] | Klebsiella pneumoniae SSI3010 MIC [1, 6] [µg/mL] | Escherichia coli ATCC 25922 MIC [2, 6] [µg/mL] | Hemolysis at 0.2 g/L [4] [%]
1 | CC[C@H](C)[C@H](NC(=O)[C@@H]1C[C@@H](O)CN1C(=O)[C@@H](N)C(C)C)C(=O)N[C@H](C(=O)N[C@@H](Cc1ccc(O)cc1)C(=O)N[C@@H]1C(=O)N[C@@H](CC(N)=O)C(=O)N[C@@H](CCCNC(=N)N)C(=O)N[C@@H](CCN)C(=O)N[C@@H]([C@@H](C)O)C(=O)N[C@H](CCN)C(=O)N[C@@H](CCCCN)C(=O)N[C@H](C(=O)N[C@@H](CCN)C(=O)N[C@@H](CCCNC(C)C)C(=O)N[C@@H](Cc2ccc(O)cc2)C(=O)O)CSSC1(C)C)[C@@H](C)O [Example 136, Hyp-Ile-Thr-Tyr-Pen-Asn-Arg-Dab-Thr-^DDab-Lys-Cys-Dab-Orn(iPr)-Tyr] (HELM PEPTIDE1{V.[Hyp].I.T.Y.[Pen].N.R.[Dab].T.[NCC[C@@H](N[*:1])C(=O)[*:2]].K.C.[Dab].[CC(C)NCCC[C@H](N[*:1])C(=O)[*:2]].Y}$PEPTIDE1,PEPTIDE1,6:R3-13:R3$$$V2.0) | 0.5 | 0.125 | 0.25 | <1 |  |  | 
2 | CC[C@H](C)[C@@H]1NC(=O)[C@@H](NC(=O)[C@H](Cc2ccc(O)cc2)NC(=O)[C@@H](NC(=O)[C@@H](NC(=O)[C@@H]2C[C@@H](O)CN2C(=O)[C@@H](N)C(C)C)[C@@H](C)CC)[C@@H](C)O)C(C)(C)SSC[C@@H](C(=O)N[C@@H](CCN)C(=O)N[C@@H](CCCNC(C)C)C(=O)N[C@@H](Cc2ccc(O)cc2)C(=O)O)NC(=O)[C@H](CCCCN)NC(=O)[C@@H](CCN)NC(=O)[C@H]([C@@H](C)O)NC(=O)[C@H](CCN)NC(=O)[C@H](CCCNC(=N)N)NC1=O [Example 137, Hyp-Ile-Thr-Tyr-Pen-Ile-Arg-Dab-Thr-^DDab-Lys-Cys-Dab-Orn(iPr)-Tyr] (HELM PEPTIDE1{V.[Hyp].I.T.Y.[Pen].I.R.[Dab].T.[NCC[C@@H](N[*:1])C(=O)[*:2]].K.C.[Dab].[CC(C)NCCC[C@H](N[*:1])C(=O)[*:2]].Y}$PEPTIDE1,PEPTIDE1,6:R3-13:R3$$$V2.0) | 0.25 | 0.125 | 0.125 | <1 |  |  | 
3 | CC[C@H](C)[C@H](NC(=O)[C@@H]1C[C@@H](O)CN1C(=O)[C@@H](N)C(C)C)C(=O)N[C@H](C(=O)N[C@@H](Cc1ccc(O)cc1)C(=O)N[C@@H]1C(=O)N[C@@H](CC(N)=O)C(=O)N[C@@H](CCCNC(=N)N)C(=O)N[C@@H](CCN)C(=O)N[C@@H]([C@@H](C)O)C(=O)N[C@H](CCNC(C)C)C(=O)N[C@@H](CCCCN)C(=O)N[C@H](C(=O)N[C@@H](CCN)C(=O)N[C@@H](CCCNC(=N)N)C(=O)N[C@@H](Cc2ccc(O)cc2)C(=O)O)CSSC1(C)C)[C@@H](C)O [Example 138, Hyp-Ile-Thr-Tyr-Pen-Asn-Arg-Dab-Thr-^DDab(iPr)-Lys-Cys-Dab-Arg-Tyr] (HELM PEPTIDE1{V.[Hyp].I.T.Y.[Pen].N.R.[Dab].T.[CC(C)NCC[C@@H](N[*:1])C(=O)[*:2]].K.C.[Dab].R.Y}$PEPTIDE1,PEPTIDE1,6:R3-13:R3$$$V2.0) | 0.5 | 0.125 | 0.125 | <1 |  |  | 
4 | V[Hyp]ITY[Pen]NR[Dab]T[dDab]NC[Dab]RY (cysteine pairing not given here) [Example 40] |  |  | 0.25 |  | 0.5 | 0.25 | 0
5 | Val-NalloThr-Ile-Thr-Tyr-Pen-Asn-Arg-Dab-Thr-^DDab-Lys-Cys-Dab-Arg-Tyr [Example 133] |  |  | 0.25 |  | 0.5 | 0.25 | <1

— patent US20240228555A9, “ANTIMICROBIAL PEPTIDOMIMETICS” (Basilea Pharmaceutica International AG, Allschwil, priority 2020, published 2024)
